Laboratory results published in patent publication US20040229777A1, “Crystalline phases of a potent HCV inhibitor” (Boehringer Ingelheim International GmbH, priority 2003, published 2004).

Tests used:
[1] = Moisture adsorption/desorption isotherm (VTI SGA-100 moisture balance); format: physicochemical; settings: 25° C.; adsorption 5 to 95% RH, desorption 95 to 5% RH; samples dried at 50° C. prior to analysis
Excerpt: It is clear from FIG. 3 that the moisture content of Type A varies depending on the relative humidity of its environment, up to a maximum water sorption level of about 3.7% by weight. […] It is clear from FIG. 7 that the moisture content of Type B varies depending on the relative humidity of its environment, up to a maximum water sorption level of about 4.5% by weight. Moisture adsorption/desorption data were collected on a VTI SGA-100 moisture balance system, available from VTI Corporation of Hialeah, Fla. For adsorption isotherms, an adsorption range of 5 to 95% relative humidity and a desorption range of 95 to 5% relative humidity in 5% relative humidity increments were used for analysis. The samples were dried at 50° C. prior to analysis. The analyses were conducted at 25° C. Equilibrium criteria used for the analysis were less than 0.001 percent change in 5 minutes with a maximum equilibration time of 1200 minutes if the weight criterion was not met.

[2] = XRPD analysis of the crystal phase under varied relative humidity and elevated temperature; format: physicochemical
Excerpt: This behavior is typical of channel hydrates, whereby water resides within the channels in the crystal lattice and can readily move in and out of the structure. Type A is therefore believed to be a type of channel hydrate. Type B is also a variable hydrate crystalline phase of Compound (1), i.e., the number of water molecules associated with each molecule of Compound (1) may vary. […] For this reason, it is preferable to maintain Type B at a modest RH level of about 20% to 40%. X-ray powder diffraction analyses were conducted on a Bruker AXS X-Ray Powder Diffractometer Model D8 Advance, available from Bruker AXS, Inc. of Madison, Wis., using CuKα radiation. The instrument is equipped with a long fine focus x-ray tube. The tube power was set to 40 kV and 30 mA. The instrument was operated in parallel beam mode with a Gobel Mirror, using a 0.6 mm exit slit, a 0.40 soller slit, a LiF flat crystal diffracted beam monochromator and a NaI scintillation detector. A detector scan was run using a tube angle of 1° 2θ. Step scans were run from 2 to 35° 2θ, at 0.050 per step, 4 sec per step. A reference quartz standard was used to check instrument alignment. Samples were prepared for analysis by filing a zero background quartz holder.

| SMILES | maximum water sorption level [1] | crystal structure behaviour under varied humidity and temperature ([2]; dry nitrogen up to ˜85% RH and elevated temperature (up to 160° C.)) | crystal structure behaviour under varied humidity and temperature ([2]; low relative humidity (e.g., dry nitrogen) and/or elevated temperature (˜90° C.)) |
| --- | --- | --- | --- |
| COc1ccc2c(O[C@@H]3C[C@H]4C(=O)N[C@]5(C(=O)O)C[C@H]5/C=C\CCCCC[C@H](NC(=O)OC5CCCC5)C(=O)N4C3)cc(-c3csc(NC(C)C)n3)nc2c1 [Type A] | about 3.7 % by weight | crystal lattice expands at higher RH levels while maintaining its overall structure | – |
| COc1ccc2c(O[C@@H]3C[C@H]4C(=O)N[C@]5(C(=O)O)C[C@H]5/C=C\CCCCC[C@H](NC(=O)OC5CCCC5)C(=O)N4C3)cc(-c3csc(NC(C)C)n3)nc2c1 [Type B] | about 4.5 % by weight | – | readily loses water resulting in a partial collapse of its crystal structure |
